In ChEMBL document CHEMBL1132640, “Structure-based design, synthesis, and X-ray crystallography of a high-affinity antagonist of the Grb2-SH2 domain containing an asparagine mimetic” (J Med Chem, 1999):

Target: Growth factor receptor-bound protein 2 (Homo sapiens, UniProt P62993)
Test: Inhibition of Grb2-SH2 domain binding to phospho-EGF receptor intracellular C-terminal domain
Format: cell-based

Chain of Growth factor receptor-bound protein 2 (P62993 whole entry, the tested form may be a part): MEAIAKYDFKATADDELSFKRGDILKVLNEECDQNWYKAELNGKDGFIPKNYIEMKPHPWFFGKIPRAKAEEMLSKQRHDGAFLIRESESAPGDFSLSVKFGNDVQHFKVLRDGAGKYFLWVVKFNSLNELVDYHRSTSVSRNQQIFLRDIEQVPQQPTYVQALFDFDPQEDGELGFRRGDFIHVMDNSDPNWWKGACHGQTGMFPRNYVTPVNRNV

Structure (SMILES): NC(=O)[C@@H]1CCC=C[C@@H]1NC(=O)C1(NC(=O)[C@H](Cc2ccc(OP(=O)(O)O)cc2)NC(=O)OCc2cccc(N)c2)CCCCC1
- IC50: > 5000 nM

Structure (SMILES): NC(=O)C[C@H](NC(=O)C1(NC(=O)[C@H](Cc2ccc(OP(=O)(O)O)cc2)NC(=O)OCc2cccc(N)c2)CCCCC1)C(N)=O
- IC50: 1 nM
